According to US20220387621A1, “TARGETED DELIVERY OF NANOCARRIER-CONJUGATED DOXORUBICIN” (priority 2019, published 2022):

Tests used:
[1] = tested on: BJAB and Farage cells; assay: 48-hour viability with TFRC overexpression, holo-TF competition or dynasore; type: cell-based, human; details: 15 μM, 50 μM
Experimental: (§1) For 24-48 hr assessments, cells were seeded at 5000 cells per well in a 96-well plate under serial drug dilutions. For delayed drug effect viability, cells were seeded at 500,000 cells per well in a 6-well plate on day 0 and treated with drug for 24 hrs, after which cells were washed ×2 and plated in normal cell media without drug. Viability was assessed using Cell Titer Glo (Promega #G7573) according to manufacturer's protocol. Luminescence was measured using BioTek Synergy HT plate reader. EC50s were calculated using nonlinear fit regression analysis in GraphPad Prism 8. Apoptosis assessment was conducted with BD Biosciences reagent (#559763) using Attune NxT flow cytometer.
Human TFRC cDNA (HsCD00044911) was purchased from the DNASU Plasmid Repository (Tempe, Ariz., USA) and was subsequently cloned into pLVX-IRES-ZsGreenl vector (Clontech Laboratories, Mountain View, Calif., USA). Recombinant plasmids, together with packaging/envelope plasmids psPAX2 and pMD2.G (Addgene, Cambridge, Mass., USA), were co-transfected into HEK293 cells using Lipofectamine 3000 (Invitrogen, Carlsbad, Calif., USA) following manufacturer's instructions. Cell media was changed at 24 hours after transfection, and viral particles collected at 48 hours and 72 hours post transfection.
For viral transduction, BJAB and Farage cells were infected with harvested virus by spinoculation. […]

[2] = tested on: murine B-lymphoma line A20; assay: 48-hour viability assay of A20 cells; type: cell-based; details: Mus musculus
Experimental: as §1

[3] = tested on: BJAB, Farage, SU-DHL4, and Riva cells; assay: Delayed drug effect viability: 24 h drug, washout, viability tracking over 6 days; type: cell-based, human
Experimental: as §1

[4] = tested on: BJAB cells; assay: Fluorescent confocal microscopy, nuclear colocalization in BJAB; type: cell-based, human; details: 24 hours
Experimental: Cells were seeded at 50,000 cells per well in a 12-well plate and treated with either vehicle or drug. BJAB cells were fixed with 4% paraformaldehyde and permeabilized with 1% NP40 followed by staining for DAPI (Thermofisher Scientific, Waltham, Mass., USA). Cells were then imaged (60×) using a Leica DM4 B microscope. HEK293 cells had the nucleus stained for DAPI (Thermo #R37605) or GFP (Thermo #C10602) per the manufacturer protocol. Cells were live-imaged (63× objective) using Leica Sp5 confocal microscop and images collected and analyzed using ImageJ software.

[5] = in vivo; details: mouse
Experimental: (§2) All animal studies were performed under the approval of the University of Miami Institutional Animal Care and Use committee. […] For tumor-bearing experiments, DLBCL PDX DFBL-75549 tumor model was obtained and engrafted mice through surgical dorsal tumor implantation. Tumor volume (TV) was measured by ultrasound (Vevo 3100, Visualsonics) with a predetermined survival endpoint of TV>1500 mm3. A continuous body weight loss of >20% was also a predetermined survival endpoint. For dose-finding experiments, mice were dosed intravenously on day 0, day 14, and day 24 and observed for changes in body weight. For R-nanoCHOP vs. R-CHOP tumor-bearing experiments, mice were dosed with all drugs intravenously once on day 1 of every 21 days, with exception to Prednisone administered orally. The following drug doses were used: Rituximab 20 mg/kg, Cyclophosphamide 40 mg/kg, Doxorubicin 3.3 mg/kg, CDT 33 mg/kg, Vincristine 0.5 mg/kg, Prednisone 0.2 mg/kg.
Formalin-fixed paraffin-embedded tissue sections, produced per standard protocols, were used to make H&E-stained and immunohistochemistry (IHC) pathology slides. Antibodies were used as per above, when applicable.

[6] = tested on: DLBCL PDX tumor; details: mouse, in vivo
Experimental: as §2

SMILES	viability, single agent [1]	EC50 [2] [nM]	cell viability over time-course after washout [3]	nuclear colocalization [4]	MTD ([5]; male, NOD scid gamma (NSG), iv) [mg/kg]	weight loss at MTD [5] [%]	anti-tumor efficacy (OS and tumor volume) [6]	body weight after two additional doses [6]	body weight nadir [6] [days]	return to starting weight [6] [days]
O=C(N/N=C/c1ccc(O)c(O)c1)c1cc2ccccc2cc1O [dynasore, Dynasore]	negatively affected viability	–	–	–	–	–	–	–	–	–
COc1cccc2c1C(=O)c1c(O)c3c(c(O)c1C2=O)C[C@@](O)(C(=O)CO)C[C@@H]3O[C@H]1C[C@H](N)[C@H](O)[C@H](C)O1 [Dox, doxorubicin]	–	10.6	seen only with much higher doses	similar	3.3	~20	relatively weak antitumor activity	irreversible weight loss	8	10 to 14
